Reference: US6787141B1, “Peptide having for fibrinogen fragment E activity, analogs, antibodies and uses thereof” (The University Court of The University of Aberdeen, priority 1999, dated 2004)

B1: fibrin fragment E: fibrin fragment E, labelled with digoxygenin ester for detection (protein)
chain 1: GPRVVERHQSACKDSDWPFCSDEDWNYKCPSGCRMKGLIDEVNQDFTNRINKLKNSLFEYQK
chain 2: GHRPLDKKREEAPSLRPAPPPISGGGYRARPAKAAATQKKVERKAPDAGGCLHADPDLGVLCPTGCQLQEALLQQERPIRNSVDELNNNVEAVSQTSSSSFQYMYLLK
chain 3: YVATRDNCCILDERFGSYCPTTCGIADFLSTYQTKVDKDLQSLEDILHQVENKTSEVKQLIK

Columns and labels:
[1] = tested on: chick chorioallantoic membrane (CAM); test: chick chorioallantoic membrane (CAM) cell proliferation assay (DNA synthesis, tritiated thymidine); format: in vivo
Description: Cell proliferation was measured using the chick chorioallantoic membrane (CAM) model as described previously (4, 29, 30).The assay used is based on quantitative measurement of DNA synthesis in the CAM after exposure to control and test substances 18 h after application in liquid form to the whole “dropped” area of each CAM (4, 29). This assay is a measure of changes in CAM vascularity (30).
The rabbit and rat antisera were mixed with active fibrin degradation products. These were applied to the chick CAM with a positive control (fibrin degradation products) and a negative control (the antibody alone). The CAM was processed for incorporation of tritiated thymidine.
The rabbit antisera were then tested for ability to block the stimulatory activity of human FDP on the chick CAM model. The assay used was based on quantitative measurement of DNA synthesis in the CAM after exposure to control and test substances 18 h after application in liquid form to the whole “dropped” area of each CAM (4,29). This assay is a measure of changes in CAM vascularity (30). Anti phage antisera, raised by relatively short term immunisation of rabbits, were used at a 1/2 dilution and admixed with FDP used at a concentration of approximately 1.95 mg/ml diluted before use to 1/10. Controls included buffer only and antiserum only groups of CAMs. After filter sterilisation, 0.3 ml was added onto each CAM dropped surface.

[2] = tested on: Chick fibroblasts, Cos7, mouse 3T3 and human embryonic lung cells (HEL); test: cell binding assays; format: cell-based; conditions: each of the cell types; 6 hours at 37° C.
Description: Chick fibroblasts, Cos7, mouse 3T3 and human embryonic lung cells (HEL) were cultured in a 25 cm^2 flask (Nunc) until confluent (approximately 3×10^6 cells). The cells were trypsinised and resuspended at concentration of 1.3×10^5 cells/ml. 200 μl of this cell suspension was added to each well of a 96 well culture plate (Nunc). The cells were incubated overnight at 37° C. to allow adherence and recovery. The cells were then divided into three sections, digoxygenin controls, PBS controls and digoxygenin labelled fragment E tests. Increasing concentrations of digoxygenin and digoxygenin labelled fibrin fragment E were applied from 0-30 mg per well. The plates were incubated for 6 hours at 37° C. under culture conditions.
The plates were emptied of media and washed three times with PBS. The cells were then incubated for 2 hours with sheep antidigoxygenin alkaline phosphatase and developed with p-nitrophenyl phosphate in bicarbonate buffer pH 9.8. The plates were read on a Titertek Multiscan plate reader at 405 nm.

Chick fibroblasts = test: cell immunohistochemistry; format: cell-based; conditions: 2 hours exposure
Description: Chick fibroblasts were cultured in a 25 cm^2 flask (Nunc) until confluent (approximately 3×10^6 cells). The cells were washed in PBS and then trypsinised and diluted to 3×10^5 cells per ml in Dulbecco modified medium with 10% foetal calf serum. […] of the cells suspension was plated into each well of a Nunc culture well slide. The cells were incubated overnight to allow adhesion and recovery from the passaging. Digoxygenin labelled fibrin fragment E was added to a final concentration of 8 mg per ml. Control wells contained unconjugated digoxygenin and PBS.
The cells were rinsed after 2 hours with PBS then washed 3 times in TBS followed by one wash in distilled water. The cells were then incubated for 2 hours with sheep anti-digoxygenin alkaline phosphatase. The slides were then washed three times in TBS and developed with NBT and BCIP in bicarbonate buffer pH 9.8. The slides were air dried and then mounted for observation of membrane staining under the microscope.

Molecule	inhibition of the stimulatory effect of FDP ([1]; FIG. 4 legend, concentration not given)	inhibition of FDP induced cell proliferation ([1]; peptide at 7.5 μg/ml)	inhibition of FDP induced cell proliferation ([1]; peptide at 15 μg/ml)	binding to cells (absorbance at 405 nm compared to control preparations) [2]	binding to cells (membrane staining) (Chick fibroblasts)
CRAHSFGSPRPLPVV [WTM110]	inhibits	little inhibition	inhibition was demonstrated with cell proliferation reduced to control level	–	–
B1	–	–	–	high absorbance	shown to bind
